Assay results: US20260327214A1, “1,3,4-OXADIAZOLE DERIVATIVE COMPOUNDS AS HISTONE DEACETYLASE 6 INHIBITOR, AND USES THEREOF” (CHONG KUN DANG PHARMACEUTICAL CORP., priority 2022, published 2026)

Legend:
human recombinant HDAC6 = biological target: T1, human recombinant HDAC6 (Homo sapiens, UniProt Q9UBN7); assay: HDAC6 enzyme activity inhibition test (HDAC Fluorometric Drug Discovery Kit); format: biochemical; conditions: for HDAC6 selectivity (fold): HDAC6 over HDAC1; for IC50: human recombinant HDAC6, same protocol as HDAC1
T1 construct: purchased Calbiochem 382180
T1 sequence (Q9UBN7 1-1215): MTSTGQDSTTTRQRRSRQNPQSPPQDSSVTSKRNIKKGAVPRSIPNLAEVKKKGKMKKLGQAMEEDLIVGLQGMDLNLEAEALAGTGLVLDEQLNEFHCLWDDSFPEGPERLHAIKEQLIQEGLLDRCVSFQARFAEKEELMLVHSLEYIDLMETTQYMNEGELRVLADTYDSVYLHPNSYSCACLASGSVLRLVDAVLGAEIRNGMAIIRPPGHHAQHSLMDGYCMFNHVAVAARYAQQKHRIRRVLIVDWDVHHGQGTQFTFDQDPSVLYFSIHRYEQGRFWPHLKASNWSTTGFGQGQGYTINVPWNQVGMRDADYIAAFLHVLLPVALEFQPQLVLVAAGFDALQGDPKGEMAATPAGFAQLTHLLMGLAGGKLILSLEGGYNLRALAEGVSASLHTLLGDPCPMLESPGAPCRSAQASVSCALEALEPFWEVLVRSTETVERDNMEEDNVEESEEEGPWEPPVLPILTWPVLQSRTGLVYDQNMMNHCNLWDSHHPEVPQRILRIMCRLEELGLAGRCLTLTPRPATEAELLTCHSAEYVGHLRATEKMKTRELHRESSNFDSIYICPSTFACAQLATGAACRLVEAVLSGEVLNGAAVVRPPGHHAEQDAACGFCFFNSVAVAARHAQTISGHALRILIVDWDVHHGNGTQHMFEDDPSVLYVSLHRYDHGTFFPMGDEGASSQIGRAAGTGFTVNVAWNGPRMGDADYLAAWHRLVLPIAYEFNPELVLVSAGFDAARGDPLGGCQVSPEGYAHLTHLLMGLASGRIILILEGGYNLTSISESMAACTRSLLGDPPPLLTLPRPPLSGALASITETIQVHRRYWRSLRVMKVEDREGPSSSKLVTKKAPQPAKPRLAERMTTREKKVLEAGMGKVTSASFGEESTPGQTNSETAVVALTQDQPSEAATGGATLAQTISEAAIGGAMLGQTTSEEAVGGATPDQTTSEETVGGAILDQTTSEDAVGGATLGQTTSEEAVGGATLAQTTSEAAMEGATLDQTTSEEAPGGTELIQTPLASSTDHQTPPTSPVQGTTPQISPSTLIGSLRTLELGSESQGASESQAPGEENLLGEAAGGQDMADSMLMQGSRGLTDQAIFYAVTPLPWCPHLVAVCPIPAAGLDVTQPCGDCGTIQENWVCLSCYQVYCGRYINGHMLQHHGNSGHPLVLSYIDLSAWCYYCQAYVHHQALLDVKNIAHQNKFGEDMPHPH
Description: (§1) The following experiment was conducted to confirm the HDAC6 selectivity of the compound represented by Chemical Formula I of the present invention through the HDAC1 and HDAC6 enzyme activity inhibition test.
(§2) HDAC enzyme activity was measured using HDAC Fluorometric Drug Discovery Kit (BML-AK511, 516) manufactured by Enzo Life Science. For the HDAC1 enzyme activity test, human recombinant HDAC1 (BML-SE456) was used as an enzyme source and Fluor de Lys-®-″SIRT1 (BNL-KI177) was used as a substrate. The 5-fold diluted compound was dispensed in a 96-well plate, 0.3 μg of enzyme and 10 μM substrate were added to each well and reacted at 30° C. for 60 minutes, and Fluor de Lys® Developer II(BML-KI176) was added and reacted for 30 minutes to complete the reaction. Then, the fluorescence value (Ex 360, Em 460) was measured using a multiplate reader (Flexstation 3, Molecular Device). The HDAC6 enzyme was tested using the same protocol as the HDAC1 enzyme activity test method employing human recombinant HDAC6 (382180) from Calbiochem. For the final result, each […] value was calculated using the GraphPad Prism 4.0 program.

human recombinant HDAC1 = biological target: T2, human recombinant HDAC1 (Homo sapiens, UniProt Q13547); assay: HDAC1 enzyme activity inhibition test (HDAC Fluorometric Drug Discovery Kit); format: biochemical; conditions: 30° C., 60 minutes, 10 μM substrate
T2 construct: purchased Enzo Life Science BML-SE456
Description: as §1, §2

T2 sequence (Q13547 whole entry): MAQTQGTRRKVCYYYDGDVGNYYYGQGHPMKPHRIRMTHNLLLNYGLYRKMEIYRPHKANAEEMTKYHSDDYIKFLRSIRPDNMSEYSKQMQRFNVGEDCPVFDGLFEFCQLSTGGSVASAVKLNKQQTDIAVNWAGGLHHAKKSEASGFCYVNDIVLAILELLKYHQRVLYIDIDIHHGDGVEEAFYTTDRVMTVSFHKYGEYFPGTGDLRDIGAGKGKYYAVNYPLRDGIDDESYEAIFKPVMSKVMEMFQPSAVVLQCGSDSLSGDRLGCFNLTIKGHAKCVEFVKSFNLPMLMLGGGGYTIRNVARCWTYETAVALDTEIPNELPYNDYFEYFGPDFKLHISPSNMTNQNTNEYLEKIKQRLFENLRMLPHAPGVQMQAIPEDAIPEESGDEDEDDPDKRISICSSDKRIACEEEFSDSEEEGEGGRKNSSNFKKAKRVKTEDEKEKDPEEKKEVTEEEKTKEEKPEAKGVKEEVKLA

Structure (SMILES) | HDAC6 selectivity (fold) (human recombinant HDAC6) | IC50 (human recombinant HDAC6) | IC50 (human recombinant HDAC1)
CC1CC(N2CCC(c3cccc(-c4nn(Cc5ccc(-c6nnc(C(F)F)o6)cn5)c(=O)o4)c3)CC2)C1 (stereo not drawn) [Compound 10, 3-[[5-[5-(difluoromethyl)-1,3,4-oxadiazol-2-yl]-2-pyridyl]methyl]-5-[3-[1-(3-methylcyclobutyl)-4-piperidyl]phenyl]-1,3,4-oxadiazol-2-one] | 666 fold | 75.1 nM | > 50000 nM
CC1CCN(Cc2ccc(-c3nn(Cc4ccc(-c5nnc(C(F)F)o5)cn4)c(=O)o3)c(F)c2)CC1 [Compound 4, 3-[[5-[5-(difluoromethyl)-1,3,4-oxadiazol-2-yl]-2-pyridyl]methyl]-5-[2-fluoro-4-[(4-methyl-1-piperidyl)methyl]phenyl]-1,3,4-oxadiazol-2-one] | 595 fold | 84.1 nM | > 50000 nM
FC(F)c1nnc(-c2ccc(Cn3nc(-c4ccnc(N5CCN(C6CCCC6)CC5)c4)oc3=S)nc2)o1 [Compound 106, 5-[2-(4-cyclopentylpiperazin-1-yl)-4-pyridyl]-3-[[5-[5-(difluoromethyl)-1,3,4-oxadiazol-2-yl]-2-pyridyl]methyl]-1,3,4-oxadiazol-2-thione] | 639 fold | 78.2 nM | > 50000 nM
O=c1oc(-c2ccccc2)cn1Cc1ccc(-c2nnc(C(F)F)o2)cn1 [Compound 142, 3-((5-(5-(difluoromethyl)-1,3,4-oxadiazol-2-yl)pyridin-2-yl)methyl)-5-phenyloxazol-2(3H)-one] | 484 fold | 103 nM | > 50000 nM
CC(C)N1CCC(c2cc(-c3nn(Cc4ccc(-c5nnc(C(F)F)o5)cn4)c(=S)o3)ccc2F)CC1 [Compound 116, 3-[[5-[5-(difluoromethyl)-1,3,4-oxadiazol-2-yl]-2-pyridyl]methyl]-5-[4-fluoro-3-(1-isopropyl-4-piperidyl)phenyl]-1,3,4-oxadiazol-2-thione] | 429 fold | 116 nM | > 50000 nM

Stronger by IC50 (human recombinant HDAC6), values ahead:

HDAC6 selectivity (fold) (human recombinant HDAC6) | IC50 (human recombinant HDAC6) | IC50 (human recombinant HDAC1) | Structure (SMILES)
2538 fold | 19.7 nM | > 50000 nM | CC(C)N1CCN(c2cccc(-c3nn(Cc4ccc(-c5nnc(C(F)F)o5)cn4)c(=S)o3)n2)CC1 [Compound 101, 3-[[5-[5-(difluoromethyl)-1,3,4-oxadiazol-2-yl]-2-pyridyl]methyl]-5-[6-(4-isopropylpiperazin-1-yl)-2-pyridyl]-1,3,4-oxadiazol-2-thione]
1042 fold | 48.7 nM | > 50000 nM | Fc1cc(-c2nnc(C(F)F)o2)cnc1Cn1nc(-c2ccc3c(c2)CCN(C2CCCCC2)C3)oc1=S [Compound 138, 5-(2-cyclohexyl-3,4-dihydro-1H-isoquinolin-6-yl)-3-[[5-[5-(difluoromethyl)-1,3,4-oxadiazol-2-yl]-3-fluoro-2-pyridyl]methyl]-1,3,4-oxadiazol-2-thione]
840 fold | 59.5 nM | > 50000 nM | CC(C)N1CCc2cc(-c3nn(Cc4ncc(-c5nnc(C(F)F)o5)cc4F)c(=S)o3)ccc2C1 [Compound 136, 3-[[5-[5-(difluoromethyl)-1,3,4-oxadiazol-2-yl]-3-fluoro-2-pyridyl]methyl]-5-(2-isopropyl-3,4-dihydro-1H-isoquinolin-6-yl)-1,3,4-oxadiazol-2-thione]
975 fold | 51.3 nM | > 50000 nM | O=c1oc(-c2ccc3ccccc3n2)nn1Cc1ccc(-c2nnc(C(F)F)o2)cn1 [Compound 42, 3-[[5-[5-(difluoromethyl)-1,3,4-oxadiazol-2-yl]-2-pyridyl]methyl]-5-(2-quinolyl)-1,3,4-oxadiazol-2-one]
1506 fold | 33.2 nM | > 50000 nM | O=c1oc(-c2ccc3cc[nH]c3c2)nn1Cc1ccc(-c2nnc(C(F)F)o2)cn1 [Compound 33, 3-[[5-[5-(difluoromethyl)-1,3,4-oxadiazol-2-yl]-2-pyridyl]methyl]-5-(1H-indole-6-yl)-1,3,4-oxadiazol-2-one]
